Experimental data as given in patent US9145411B2, “Substituted amino-pyrimidine derivatives” (Asana Biosciences, LLC, priority 2012, dated 2015).

How the values were obtained:
[1] = target: T1, PI3Kα (wild-type) (Homo sapiens, UniProt P42336); test: PI3 Kinase TR-FRET assay, PI3Kα (wild-type); type: biochemical; conditions: wild-type P110/P85α, 10 μM ATP
T1 construct: made in house; host or cells: SF9 insect cells
Description: The ability of compounds of the invention to inhibit PI3K activity was determined in a homogeneous TR-FRET assay using a PI3K assay kit (Millipore, USA; cat #33-016) according to manufacturer's instructions. PI3-Kinases (isoforms α, β, γ and δ) catalyze the phosphorylation of phosphatidylinositol, PIP2 to PIP3 in the presence of ATP and Mg^2+. The PIP3 product is detected by displacement of biotin-PIP3 from an energy transfer complex consisting of Europium labeled anti-GST monoclonal antibody, a GST-tagged PH domain, biotinylated PIP3 and Streptavidin-APC. Excitation of Europium in the complex results in an energy transfer to the APC and a fluorescence emission at 665 nm. The PIP3 product displaces biotin-PIP3 from the complex resulting in a loss of energy transfer and thus a decrease in signal.
To test for the ability of compounds to inhibit the activity of PI3Kα (wild-type), exemplary compounds of formula (I) were dissolved in DMSO and directly distributed into 384-well plates at a volume of 0.5 μL. 14.5 μL of P110/P85α/PIP2 mixture in buffer (obtained from the Millipore kit) containing MgCl2 (40 mM) and DTT (5 mM) was added to compound wells and incubated for 60 minutes at room temperature. P110/P85α was expressed in SF9 insect cells and purified nickel column extraction. Five ng of wild-type P110/P85α was used in the assay. The kinase reaction was started by the addition of ATP. The assay concentrations of both PIP2 and ATP were 10 μM. The reaction mixture was incubated for 30 minutes at room temperature and was terminated by the addition of stop mix and detection mix. Fluorescence was measured at 615 and 665 nm upon excitation at 340 nm in a Victor™ V5 fluorometer (Perkin Elmer, USA). The fluorescence emission ratio at 665 to 615 nm, proportional to the kinase activity, was plotted against the compound concentration to generate dose-response curves and IC50 values were determined using GraphPad Prism® 5 software.

[2] = target: T2, mTOR kinase (Homo sapiens, UniProt P42345); test: mTOR kinase TR-FRET assay; type: biochemical; conditions: 20 μM ATP
T2 construct: purchased Millipore, USA
Description: Compound inhibition for mTOR kinase was determined in a homogeneous TR-FRET assay using the Lance® ULight-p70 S6K (Thr 389) peptide (obtained from Perkin-Elmer). The ULight™-labeled synthetic peptide contains the amino acid residues surrounding Thr389 of human p70 S6K. The ULight-p70 S6K peptide is phosphorylated at Thr389 by mTOR. Phosphorylation motif: LGFTYVAP as substrate.
The compound dilution was carried out in 100% DMSO followed by a buffer dilution. The reaction buffer was HEPES (50 mM pH 7.5), EGTA (1 mM), MnCl2 (3 mM). Test compounds at various concentrations were pre-incubated with mTOR (Millipore, USA; 5 ng) for 60 min, and then the Lance® ULight-p70 S6K (Thr 389) peptide (50 nM) was added along with ATP (20 μM). After incubating the reaction mixture for 60 minutes at room temperature, the kinase reaction was terminated by the addition of EDTA (10 mM) followed by the addition of detection mix, i.e., 1 nM Eu-labeled anti-phospho-substrate antibody (Perkin Elmer, USA). The fluorescence emission at […] was measured upon excitation at 340 nm. IC50 values were subsequently determined using a sigmoidal dose-response curve (variable slope) in GraphPad Prism® 5 software.
Compounds of formula (I) caused inhibition of mTOR kinase activity as determined by this assay.

[3] = system: PC3 cells; test: XTT assay for cell viability, PC3 cells; type: cell-based; conditions: Homo sapiens, PC-3; PC3 cell proliferation, 96 hours
Description: Using a commercial kit from Sigma Aldrich (Catalog #X34251) and following its protocol, PC3 cells in the log phase of growth were employed and seeded at an optimal density of 1000 cell/well on to 96 well plates and incubated for 24 hours followed by the addition of compounds of formula (I) in serial dilutions. Compound dilutions were made in DMSO. The cells were incubated with the compounds of formula (I) for 96 hours and XTT tetrazolium dye (Sigma, USA) was subsequently added and incubated at 37° C. After the color formation, absorbance was measured at 465 nm in a Spectramax® Gemini spectrophotometer. EC50 values were calculated using a sigmoidal dose response curve fit in GraphPad Prism® v5 software. The tested compounds of formula (I) which caused inhibition of PC3 cell proliferation as determined by this assay protocol are shown in Table 2.

T1 sequence (P42336 whole entry, species assumed): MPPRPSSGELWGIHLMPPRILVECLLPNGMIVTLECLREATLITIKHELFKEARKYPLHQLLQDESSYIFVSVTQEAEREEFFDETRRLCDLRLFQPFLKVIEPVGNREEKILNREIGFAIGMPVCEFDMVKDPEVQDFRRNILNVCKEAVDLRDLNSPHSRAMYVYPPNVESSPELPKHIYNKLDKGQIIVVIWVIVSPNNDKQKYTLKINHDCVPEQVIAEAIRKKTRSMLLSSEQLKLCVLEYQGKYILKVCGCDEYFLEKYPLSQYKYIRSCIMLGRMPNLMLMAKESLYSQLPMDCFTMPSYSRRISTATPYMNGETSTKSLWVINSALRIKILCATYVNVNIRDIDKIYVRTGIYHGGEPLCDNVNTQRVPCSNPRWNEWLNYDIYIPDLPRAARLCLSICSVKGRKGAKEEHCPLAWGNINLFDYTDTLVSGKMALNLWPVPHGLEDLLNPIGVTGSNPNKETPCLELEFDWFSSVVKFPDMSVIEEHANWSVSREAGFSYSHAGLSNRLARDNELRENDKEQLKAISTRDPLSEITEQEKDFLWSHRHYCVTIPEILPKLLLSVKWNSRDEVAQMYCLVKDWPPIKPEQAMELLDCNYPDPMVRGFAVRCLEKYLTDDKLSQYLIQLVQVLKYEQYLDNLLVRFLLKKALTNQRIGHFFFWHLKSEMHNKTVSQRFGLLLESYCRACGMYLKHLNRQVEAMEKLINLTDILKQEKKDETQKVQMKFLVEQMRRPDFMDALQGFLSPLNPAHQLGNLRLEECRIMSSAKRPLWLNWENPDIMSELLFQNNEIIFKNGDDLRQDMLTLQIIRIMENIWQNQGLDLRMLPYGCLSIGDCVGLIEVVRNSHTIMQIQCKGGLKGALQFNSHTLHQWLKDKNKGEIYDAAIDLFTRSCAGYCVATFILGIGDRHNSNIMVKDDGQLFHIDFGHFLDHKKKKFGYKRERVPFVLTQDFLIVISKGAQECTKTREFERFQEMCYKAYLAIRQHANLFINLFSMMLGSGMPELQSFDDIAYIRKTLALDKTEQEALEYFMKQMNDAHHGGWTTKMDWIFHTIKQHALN
T1 sequence (P27986 whole entry partner, species assumed): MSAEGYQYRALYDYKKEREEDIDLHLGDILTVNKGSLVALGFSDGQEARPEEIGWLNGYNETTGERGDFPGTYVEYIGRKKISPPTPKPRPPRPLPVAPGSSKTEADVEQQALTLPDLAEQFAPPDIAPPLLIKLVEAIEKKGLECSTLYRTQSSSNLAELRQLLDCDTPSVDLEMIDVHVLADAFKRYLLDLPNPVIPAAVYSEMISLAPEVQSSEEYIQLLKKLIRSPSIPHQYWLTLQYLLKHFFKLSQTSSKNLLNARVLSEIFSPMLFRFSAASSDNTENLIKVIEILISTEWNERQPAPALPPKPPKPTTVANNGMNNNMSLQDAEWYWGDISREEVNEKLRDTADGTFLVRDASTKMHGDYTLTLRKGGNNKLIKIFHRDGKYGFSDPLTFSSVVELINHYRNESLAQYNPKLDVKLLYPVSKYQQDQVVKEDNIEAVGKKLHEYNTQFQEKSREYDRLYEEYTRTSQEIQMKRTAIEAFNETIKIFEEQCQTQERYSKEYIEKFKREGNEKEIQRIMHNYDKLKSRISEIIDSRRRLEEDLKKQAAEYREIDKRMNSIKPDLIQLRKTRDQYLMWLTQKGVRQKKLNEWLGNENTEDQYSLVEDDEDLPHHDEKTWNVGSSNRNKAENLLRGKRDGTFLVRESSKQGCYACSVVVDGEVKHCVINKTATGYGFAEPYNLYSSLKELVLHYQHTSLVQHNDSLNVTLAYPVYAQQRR
T2 sequence (P42345 1362-2549 limits assumed): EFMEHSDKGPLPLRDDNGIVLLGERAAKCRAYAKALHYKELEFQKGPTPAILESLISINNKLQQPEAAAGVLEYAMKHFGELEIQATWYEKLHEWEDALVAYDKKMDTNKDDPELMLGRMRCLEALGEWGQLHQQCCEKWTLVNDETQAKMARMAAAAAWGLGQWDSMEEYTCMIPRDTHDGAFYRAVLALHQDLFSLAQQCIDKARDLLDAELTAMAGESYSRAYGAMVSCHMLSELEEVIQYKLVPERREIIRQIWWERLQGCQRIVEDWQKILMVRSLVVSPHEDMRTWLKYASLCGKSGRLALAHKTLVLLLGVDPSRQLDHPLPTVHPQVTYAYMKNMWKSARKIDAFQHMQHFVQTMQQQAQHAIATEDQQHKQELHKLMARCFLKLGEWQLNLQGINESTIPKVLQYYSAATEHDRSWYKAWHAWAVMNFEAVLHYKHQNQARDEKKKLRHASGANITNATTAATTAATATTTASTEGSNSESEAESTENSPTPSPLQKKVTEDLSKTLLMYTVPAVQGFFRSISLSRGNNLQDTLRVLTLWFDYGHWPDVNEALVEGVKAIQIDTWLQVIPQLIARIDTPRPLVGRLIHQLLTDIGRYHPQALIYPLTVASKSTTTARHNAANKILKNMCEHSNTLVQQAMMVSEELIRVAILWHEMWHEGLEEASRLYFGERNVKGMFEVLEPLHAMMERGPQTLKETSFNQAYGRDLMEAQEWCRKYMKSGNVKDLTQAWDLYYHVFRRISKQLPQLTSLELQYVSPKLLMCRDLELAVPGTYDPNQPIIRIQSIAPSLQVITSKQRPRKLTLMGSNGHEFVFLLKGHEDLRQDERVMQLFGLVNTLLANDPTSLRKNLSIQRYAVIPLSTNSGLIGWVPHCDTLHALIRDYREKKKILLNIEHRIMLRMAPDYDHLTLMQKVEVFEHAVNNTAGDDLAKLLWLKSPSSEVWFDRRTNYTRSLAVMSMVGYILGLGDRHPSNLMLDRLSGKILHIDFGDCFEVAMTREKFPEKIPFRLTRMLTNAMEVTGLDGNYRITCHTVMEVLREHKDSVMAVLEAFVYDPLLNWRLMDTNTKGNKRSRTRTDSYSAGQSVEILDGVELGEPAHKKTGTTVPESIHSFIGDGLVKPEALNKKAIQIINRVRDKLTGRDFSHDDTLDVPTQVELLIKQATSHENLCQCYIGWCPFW

Structure (SMILES) | IC50 [1] [nM] | IC50 [2] [nM] | IC50 [3] [nM]
Nc1ncc(-c2nc(N3CCOCC3)c3ncc(-c4ccc(C(=O)Nc5cccnc5)o4)cc3n2)cn1 [Example 34, 5-(2-(2-aminopyrimidin-5-yl)-4-morpholino-pyrido[3,2-d]pyrimidin-7-yl)-N-(pyridin-3-yl)furan-2-carboxamide] | < 50 | < 50 | 100 to 500
Nc1ncc(-c2nc(N3CCOCC3)c3ncc(-c4cccc(NC(=O)C5CCCCC5)c4)cc3n2)cn1 [Example 60, N-(3-(2-(2-amino-pyrimidin-5-yl)-4-morpholinopyrido[3,2-d]pyrimidin-7-yl)-phenyl)cyclohexane-carboxamide] | < 50 | 50 to 200 | 501 to 5000
CN1CCN(c2cncc(-c3cnc4c(N5CCOCC5)nc(-c5cnc(N)nc5)nc4c3)c2)CC1 [Example 100, 5-(7-(5-(4-methyl-piperazin-1-yl)pyridin-3-yl)-4-morpholino-pyrido[3,2-d]pyrimidin-2-yl)pyrimidin-2-amine] | < 50 | 50 to 200 | 501 to 5000
Nc1ncc(-c2nc(N3CCOCC3)c3ncc(-c4cccc(C(=O)Nc5ccncc5F)c4)cc3n2)cn1 [Example 97, 3-(2-(2-aminopyrimidin-5-yl)-4-morpholinopyrido[3,2-d]-pyrimidin-7-yl)-N-(3-fluoropyridin-4-yl)-benzamide] | < 50 | < 50 | 100 to 500
Cc1ccc(-c2cnc3c(N4CCOCC4)nc(-c4cnc(N)nc4)nc3c2)o1 [Example 26, 5-(7-(5-methylfuran-2-yl)-4-morpholino-pyrido[3,2-d]pyrimidin-2-yl)pyrimidin-2-amine] | < 50 | 50 to 200 | 501 to 5000
CNC(=O)Nc1cccc(-c2ccc3c(N4CCOCC4)nc(-c4cnc(N)nc4)nc3c2)c1 [Example 15, 1-(3-(2-(2-amino-pyrimidin-5-yl)-4-morpholinoquinazolin-7-yl)phenyl)-3-methylurea] | 201 to 10000 | < 50 | 501 to 5000
CC(=O)Nc1cccc(-c2ccc3c(N4CCOCC4)nc(-c4cnc(N)nc4)nc3c2)c1 [Example 13, N-(3-(2-(2-amino-pyrimidin-5-yl)-4-morpholinoquinazolin-7-yl)phenyl)acetamide] | 201 to 10000 | 50 to 200 | 501 to 5000
N#CC1(C(=O)Nc2cccc(-c3cnc4c(N5CCOCC5)nc(-c5cnc(N)nc5)nc4c3)c2F)CC1 [Example 125, N-(3-(2-(2-amino-pyrimidin-5-yl)-4-morpholinopyrido[3,2-d]pyrimidin-7-yl)-2-fluorophenyl)-1-cyanocyclopropane-carboxamide] | < 50 | < 50 | 100 to 500
Nc1ncc(-c2nc(N3CCOCC3)c3ncc(-c4ccc5c(c4)NC(=O)CO5)cc3n2)cn1 [Example 111, 6-(2-(2-aminopyrimidin-5-yl)-4-morpholinopyrido[3,2-d]pyrimidin-7-yl)-2H-benzo[b][1,4]oxazin-3(4H)-one] | < 50 | 50 to 200 | 100 to 500
Nc1ncc(-c2nc(N3CCOCC3)c3ncc(-c4cccc(C(=O)N5CCC(O)CC5)c4)cc3n2)cn1 [Example 40, (3-(2-(2-aminopyrimidin-5-yl)-4-morpholino-pyrido[3,2-d]pyrimidin-7-yl)phenyl)(4-hydroxy-piperidin-1-yl)methanone] | – | – | 100 to 500
Cc1cc(C(=O)Nc2ccc(-c3cnc4c(N5CCOCC5)nc(-c5cnc(N)nc5)nc4c3)cc2)[nH]n1 [Example 80, N-(4-(2-(2-amino-pyrimidin-5-yl)-4-morpholinopyrido[3,2-d]pyrimidin-7-yl)phenyl)-3-methyl-1H-pyrazole-5-carboxamide] | – | – | > 1000
Nc1ncc(-c2nc(N3CCOCC3)c3ncc(-c4ccc(C(=O)N5CCC(O)CC5)cc4)cc3n2)cn1 [Example 39, (4-(2-(2-aminopyrimidin-5-yl)-4-morpholino-pyrido[3,2-d]pyrimidin-7-yl)phenyl)(4-hydroxy-piperidin-1-yl)methanone] | – | – | 501 to 5000
CN1CCN(C(=O)Nc2cccc(-c3ccc4c(N5CCOCC5)nc(-c5cnc(N)nc5)nc4c3)c2)CC1 [Example 87, N-(3-(2-(2-amino-pyrimidin-5-yl)-4-morpholinoquinazolin-7-yl)phenyl)-4-methyl-piperazine-1-carboxamide] | < 50 | 201 to 10000 | –
Nc1ncc(-c2nc(N3CCOCC3)c3ccc(-c4cccc(NC(=O)N5CCOCC5)c4)cc3n2)cn1 [Example 88, N-(3-(2-(2-amino-pyrimidin-5-yl)-4-morpholinoquinazolin-7-yl)phenyl)morpholine-4-carboxamide] | 50 to 200 | 50 to 200 | –
CN1CCN(C(=O)c2cccc(-c3cnc4c(N5CCOCC5)nc(-c5cnc(N)nc5)nc4c3)c2)CC1 [Example 110, (3-(2-(2-aminopyrimidin-5-yl)-4-morpholinopyrido[3,2-d]-pyrimidin-7-yl)phenyl)(4-methylpiperazin-1-yl)-methanone] | – | 50 to 200 | 100 to 500
CS(=O)(=O)c1cncc(-c2ccc3c(N4CCOCC4)nc(-c4cnc(N)nc4)nc3c2)c1 [Example 18, 5-(7-(5-(methyl-sulfonyl)pyridin-3-yl)-4-morpholinoquinazolin-2-yl)pyrimidin-2-amine] | 201 to 10000 | 201 to 10000 | –
Nc1ncc(-c2nc(N3CCOCC3)c3ncc(-c4ccc(NC(=O)C5CC5)cc4)cc3n2)cn1 [Example 62, N-(4-(2-(2-amino-pyrimidin-5-yl)-4-morpholinopyrido[3,2-d]pyrimidin-7-yl)-phenyl)cyclopropane-carboxamide] | < 50 | 50 to 200 | –
CC(C)(O)C(=O)N1CCN(Cc2ccc3c(N4CCOCC4)nc(-c4cnc(N)nc4)nc3c2)CC1 [Example 91, 1-(4-((2-(2-amino-pyrimidin-5-yl)-4-morpholinoquinazolin-7-yl)methyl)piperazin-1-yl)-2-hydroxy-2-methyl-propan-1-one] | 201 to 10000 | 201 to 10000 | –
Nc1ncc(-c2nc(N3CCOCC3)c3ncc(-c4ccc(NC(=O)C5CC5)cc4F)cc3n2)cn1 [Example 32, N-(4-(2-(2-amino-pyrimidin-5-yl)-4-morpholinopyrido[3,2-d]pyrimidin-7-yl)-3-fluorophenyl)cyclo-propanecarboxamide] | < 50 | 50 to 200 | –
Cc1cc(C(=O)Nc2cccc(-c3cnc4c(N5CCOCC5)nc(-c5cnc(N)nc5)nc4c3)c2)[nH]n1 [Example 75, N-(3-(2-(2-amino-pyrimidin-5-yl)-4-morpholinopyrido[3,2-d]pyrimidin-7-yl)phenyl)-3-methyl-1H-pyrazole-5-carboxamide] | < 50 | < 50 | –
CC(O)C(=O)N1CCN(Cc2cnc3c(N4CCOCC4)nc(-c4cnc(N)nc4)nc3c2)CC1 (stereo not drawn) [Example 11, 1-(4-((2-(2-aminopyrimidin-5-yl)-4-morpholinopyrido[3,2-d]pyrimidin-7-yl)-methyl)piperazin-1-yl)-2-hydroxypropan-1-one] | 201 to 10000 | 201 to 10000 | –
